The assay has as its system DosRST regulon. Format: cell-based. Conditions: 40 μM, 6 days, >2-fold, p<0.05.

For `C[C@@H]1CC(C)(C)C[C@]2(C1)NC(=O)NC2=O` (racemic) [HC102A, 7,7,9-trimethyl-1,3-diazaspiro[4.5]decane-2,4-dione], the “genes downregulated by compound that are also downregulated in the CDC1551(ΔdosR) mutant” value is reported as 48 genes.

Source of the values: patent US11717508B2, “Compounds, compositions, and methods for inhibiting bacterial growth” (priority 2016, dated 2023).
